Measured values reported in ChEMBL document CHEMBL5050844 (2019).

Columns and labels:
[1] = Induction of anti-CD3/CD28 antibodies-stimulated human T cell activation at 1 uM assessed fold increase in IL-2 secretion measured by ELISA assay; assay type: functional, T cell line
[2] = Induction of anti-CD3/CD28 antibodies-stimulated human T cell activation at 0.3 uM assessed fold increase in CD25 expression measured by ELISA assay; assay type: functional, T cell line
[3] = Induction of anti-CD3 antibodies-stimulated human T cell activation at 8 uM assessed fold increase in CD25 expression measured by ELISA assay; assay type: functional, T cell line; note: reference of the scale not given here
[4] = Induction of anti-CD3 antibodies-stimulated human T cell activation at 1 uM assessed fold increase in CD25 expression measured by ELISA assay; assay type: functional, T cell line; note: reference of the scale not given here
[5] = Induction of anti-CD3 antibodies-stimulated human T cell activation at 1 uM assessed fold increase in IL-2 secretion measured by ELISA assay; assay type: functional, T cell line; note: reference of the scale not given here
[6] = Induction of anti-CD3/CD28 antibodies-stimulated human T cell activation at 4 uM assessed fold increase in CD25 expression measured by ELISA assay; assay type: functional, T cell line
[7] = Induction of anti-CD3/CD28 antibodies-stimulated human T cell activation at 1 uM assessed fold increase in CD25 expression measured by ELISA assay; assay type: functional, T cell line
[8] = Induction of anti-CD3/CD28 antibodies-stimulated human T cell activation at 4 uM assessed fold increase in IL-2 secretion measured by ELISA assay; assay type: functional, T cell line
[9] = Induction of anti-CD3 antibodies-stimulated human T cell activation at 8 uM assessed fold increase in IL-2 secretion measured by ELISA assay; assay type: functional, T cell line; note: reference of the scale not given here
[10] = Induction of anti-CD3/CD28 antibodies-stimulated human T cell activation at 0.3 uM assessed fold increase in IL-2 secretion measured by ELISA assay; assay type: functional, T cell line
[11] = target: E3 ubiquitin-protein ligase CBL-B (Homo sapiens, UniProt Q13191); experiment: Inhibition of N-terminal Avi-tagged human CBL-B (36 to 427 residues) incubated with 60 nM Src kinase for 1.5 hrs followed by incubation with fluorescently labeled UbcH5B-Ub for 1 hr and measured by TR-FRET assay; assay type: single protein
E3 ubiquitin-protein ligase CBL-B, sequence (Q13191 whole entry, the tested form may be a part): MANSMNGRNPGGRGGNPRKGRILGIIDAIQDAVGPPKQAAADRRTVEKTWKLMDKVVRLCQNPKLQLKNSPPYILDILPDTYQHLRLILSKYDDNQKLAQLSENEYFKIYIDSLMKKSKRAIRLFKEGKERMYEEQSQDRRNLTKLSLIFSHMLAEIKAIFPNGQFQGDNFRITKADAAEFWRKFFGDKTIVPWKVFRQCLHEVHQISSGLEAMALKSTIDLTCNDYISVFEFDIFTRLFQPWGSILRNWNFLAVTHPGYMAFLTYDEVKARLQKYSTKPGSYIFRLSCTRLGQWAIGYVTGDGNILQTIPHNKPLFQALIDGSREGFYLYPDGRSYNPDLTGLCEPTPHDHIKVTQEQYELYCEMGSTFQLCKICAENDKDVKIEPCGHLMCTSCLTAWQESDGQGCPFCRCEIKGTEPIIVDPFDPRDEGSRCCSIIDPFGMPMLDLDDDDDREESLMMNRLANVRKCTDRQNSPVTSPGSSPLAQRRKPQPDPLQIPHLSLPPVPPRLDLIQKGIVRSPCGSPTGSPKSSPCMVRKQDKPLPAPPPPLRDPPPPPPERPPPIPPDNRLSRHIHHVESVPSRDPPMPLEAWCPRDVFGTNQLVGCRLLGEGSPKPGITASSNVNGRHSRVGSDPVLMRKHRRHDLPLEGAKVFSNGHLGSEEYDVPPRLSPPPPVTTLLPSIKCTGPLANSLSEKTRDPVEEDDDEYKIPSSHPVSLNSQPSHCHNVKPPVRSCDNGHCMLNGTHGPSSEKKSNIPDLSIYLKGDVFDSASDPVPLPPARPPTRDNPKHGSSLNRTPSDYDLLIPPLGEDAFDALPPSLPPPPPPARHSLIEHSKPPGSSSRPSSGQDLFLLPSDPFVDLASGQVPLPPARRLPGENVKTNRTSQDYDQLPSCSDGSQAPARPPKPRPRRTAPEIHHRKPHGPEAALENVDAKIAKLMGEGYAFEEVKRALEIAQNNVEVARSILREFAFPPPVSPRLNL

| Structure (SMILES) | fold change (FC) [1] | fold change (FC) [2] | fold change (FC) [3] | fold change (FC) [4] | fold change (FC) [5] | fold change (FC) [6] | fold change (FC) [7] | fold change (FC) [8] | fold change (FC) [9] | fold change (FC) [10] | IC50 [11] [nM] | fold change (FC) ([1]; 1 µM) | fold change (FC) ([3]; 8 µM) | fold change (FC) ([5]; 1 µM) | fold change (FC) ([8]; 4 µM) | fold change (FC) ([10]; 0.3 µM) |
| --- | --- | --- | --- | --- | --- | --- | --- | --- | --- | --- | --- | --- | --- | --- | --- | --- |
| Cc1ncc(C(=O)Nc2cccc([C@H](C)Sc3nncn3C)c2)nc1C1CC1 | 1.01 | 1.31 | 0.801 | 0.801 | <=0.05 | 1.51 | 1.31 | 2.51 | 0.051 | <=1 | – | – | – | – | – | – |
| Cn1cnnc1C(F)(F)[C@](C)(F)c1cccc(N2Cc3c(cc(C(=O)N4CC(C(F)F)C4)cc3C(F)(F)F)C2=O)c1 | 1.01 | 1.01 | 0.801 | 0.601 | 0.051 | 1.01 | 1.01 | 1.01 | 0.051 | 1.01 | – | – | – | – | – | – |
| C[C@H](O)CNc1cc([C@H](C)Cc2nncn2C)cc(N2Cc3c(cccc3C(F)(F)F)C2=O)n1 | 1.01 | 1.01 | 0.601 | 0.601 | 0.051 | 1.01 | 1.01 | 1.01 | 0.101 | 1.01 | – | – | – | – | – | – |
| Cn1cnnc1[C@@H]1CC[C@@H]1c1cccc(N2Cc3c(cccc3C(F)(F)F)C2=O)c1 | >=7.5 | 1.01 | 0.801 | 0.601 | 0.101 | 1.01 | 1.01 | >=7.5 | >=0.201 | 5 | – | – | – | – | – | – |
| C[C@H](Sc1nncn1C)c1cc(F)cc(N2Cc3c(cccc3C(F)(F)F)C2=O)c1 | 1.01 | 1.01 | 0.801 | <=0.6 | <=0.05 | 1.01 | 1.01 | <=1 | <=0.05 | <=1 | – | – | – | – | – | – |
| C[C@H](Cc1nncn1C)c1cccc(NC(=O)c2cc(O[C@H]3CC[C@@H](O)C3)ccn2)c1 | 1.01 | 1.01 | 0.801 | 0.801 | <=0.05 | 1.01 | 1.01 | 2.51 | 0.051 | 1.01 | – | – | – | – | – | – |
| C[C@H](Cc1nncn1C)c1cccc(NC(=O)c2cc(C(F)(F)F)n[nH]2)c1 | 1.01 | 1.01 | 0.601 | 0.601 | 0.051 | 1.01 | 1.01 | 1.01 | 0.101 | 1.01 | – | – | – | – | – | – |
| C[C@H](Cc1nncn1C)c1cccc(NC(=O)c2cc3cccn3cn2)c1 | 1.01 | 1.01 | 0.801 | 0.601 | 0.051 | 1.01 | 1.01 | 1.01 | 0.101 | 1.01 | – | – | – | – | – | – |
| C[C@H](Cc1nncn1C)c1cccc(N2Cc3c(ccnc3C(C)(C)F)C2=O)c1 | – | – | – | – | – | – | – | >=7.5 | – | – | – | – | – | – | – | – |
| Cc1cc(C(=O)Nc2cccc(C(C)(C)Cc3nncn3C)c2)nc(C2CC2)n1 | >=7.5 | 1.31 | – | 0.801 | 0.101 | – | 1.31 | – | – | 5 | < 100 | – | – | – | – | – |
| CC[C@@H](c1cc2c(c(C(F)(F)F)c1)CN(c1cccc(C3(Cc4nncn4C)COC3)c1)C2=O)N1CC[C@H](F)C1 | >=7.5 | 1.51 | – | >=1.001 | >=0.201 | – | 1.51 | – | – | >=7.5 | < 100 | – | – | – | – | – |
| Cc1cc(C(=O)Nc2cccc(C3(C(F)(F)c4nncn4C)CC3)c2)nc(C2CC2)n1 | 2.51 | 1.01 | – | 0.601 | 0.101 | – | 1.01 | – | – | 1.01 | < 100 | – | – | – | – | – |
| Cc1ccc(C(=O)Nc2cccc([C@@H](C)Cc3nccn3C)c2)nc1C1CC1 | – | – | – | – | – | – | – | – | – | – | – | 1.01 | 0.601 | <=0.05 | 1.01 | 1.01 |
| C[C@@H](c1cc2c(c(C(F)(F)F)c1)CN(c1cccc(C3(Cc4nncn4C)COC3)c1)C2=O)N1CCC2(CC1)CC2 | >=7.5 | 1.01 | – | >=1.001 | >=0.201 | – | 1.01 | – | – | >=7.5 | < 100 | – | – | – | – | – |
| CC(c1cc2c(c(C3CC3)n1)CN(c1cccc(C3(Cc4nncn4C)COC3)c1)C2=O)N1CCCC1 (stereo not drawn) | 2.51 | 1.01 | – | 0.601 | <=0.05 | – | 1.01 | – | – | 1.01 | < 100 | – | – | – | – | – |
| Cn1cnnc1[C@H](F)C1(c2cccc(N3Cc4c(cc(CN5[C@H]6CC[C@H]5CC(F)C6)cc4C(F)(F)F)C3=O)c2)COC1 (stereo partly drawn) | >=7.5 | >=1.76 | – | >=1.001 | >=0.201 | – | >=1.76 | – | – | >=7.5 | < 100 | – | – | – | – | – |
| Cn1cnnc1CC1(c2cccc(N3Cc4c(cc(CN5CC(F)C5(C)C)cc4C(F)(F)F)C3=O)c2)COC1 (stereo not drawn) | 5 | 1.31 | – | >=1.001 | 0.101 | – | 1.31 | – | – | 2.51 | < 100 | – | – | – | – | – |
| Cn1cnnc1CC1(c2cccc(NC(=O)c3csc(C(F)(F)F)n3)c2)COC1 | 1.01 | 1.01 | – | 0.601 | 0.051 | – | 1.01 | – | – | 1.01 | < 100 | – | – | – | – | – |
| Cn1cnnc1CC1(c2cccc(N3Cc4c(cc(CN5CCCC6CC65)cc4C(F)(F)F)C3=O)c2)COC1 (stereo not drawn) | >=7.5 | 1.01 | – | >=1.001 | >=0.201 | – | 1.01 | – | – | >=7.5 | < 100 | – | – | – | – | – |
| C[C@H]1CN(C)CCN1c1cc2c(c(C(F)(F)F)c1)CN(c1cccc(C3(Cc4nncn4C)COC3)c1)C2=O | >=7.5 | 1.01 | – | >=1.001 | >=0.201 | – | 1.31 | – | – | 5 | < 100 | – | – | – | – | – |
| Cn1cnnc1CC1(c2cccc(NC(=O)c3cc(CN4C[C@@H]5[C@H](C4)C5(F)F)cc(C4CC4)n3)c2)COC1 | >=7.5 | 1.31 | – | >=1.001 | >=0.201 | – | 1.31 | – | – | >=7.5 | < 100 | – | – | – | – | – |
| Cn1cnnc1[C@@H](F)C1(c2cccc(N3Cc4c(cc(CN5[C@H]6CC[C@H]5CC(F)C6)cc4C(F)(F)F)C3=O)c2)COC1 (stereo partly drawn) | >=7.5 | >=1.76 | – | 0.801 | >=0.201 | – | >=1.76 | – | – | 2.51 | < 100 | – | – | – | – | – |
| COc1ccc2c(c1)CN(Cc1cc3c(c(C(F)(F)F)c1)CN(c1cccc(C4(Cc5nncn5C)COC4)c1)C3=O)C2 | >=7.5 | 1.31 | – | >=1.001 | >=0.201 | – | 1.31 | – | – | >=7.5 | < 100 | – | – | – | – | – |
| Cn1cnnc1CC1(c2cccc(NC(=O)c3[nH]nc4c3OCCC4)c2)COC1 | 1.01 | 1.01 | – | 0.601 | 0.051 | – | 1.01 | – | – | 1.01 | < 100 | – | – | – | – | – |
| Cn1cnnc1CC1(c2cccc(NC(=O)c3cc(N4CC(C(F)F)C4)nc(C4CC4)n3)c2)COC1 | >=7.5 | 1.01 | – | 0.801 | 0.101 | – | 1.01 | – | – | 2.51 | < 100 | – | – | – | – | – |
| Cn1cnnc1CC1(c2cccc(N3Cc4c(cc(CN5CCC[C@@H](F)C5)cc4C(F)(F)F)C3=O)c2)COC1 | >=7.5 | 1.31 | – | >=1.001 | >=0.201 | – | 1.31 | – | – | >=7.5 | < 100 | – | – | – | – | – |
